Results from patent US20200368312A1 (priority 2017, published 2020).
In brackets after ≈: the same amount, converted by molar mass. Where two headings read alike, the source gives them in different places.

Tests used:
Staphylococcus aureus = test: microbe, parasite or virus in culture; format: cell-based
Enterococci = format: cell-based
Streptococci = test: Broth microdilution MIC, Streptococci (Example 11, Table 7); format: cell-based
Clostridium difficile = test: Broth microdilution MIC, C. difficile, anaerobic, supplemented Brucella Broth (Example 11, Table 7); format: cell-based
[1] = Un-inoculated solubility control plates, drug precipitation in test media; format: physicochemical; conditions: top concentration tested (64 μg/mL) in MHBII with blood and supplemented Brucella broth
S. epidermidis (CoNS) = test: Broth microdilution MIC, S. epidermidis (CoNS) (Table 7); format: cell-based
S. lugdenensis (CoNS) = test: Broth microdilution MIC, S. lugdenensis (CoNS) (Table 7); format: cell-based; conditions: S. lugdenensis (CoNS) MMX 8724
S. haemolyticus (CoNS) = test: Broth microdilution MIC, S. haemolyticus (CoNS) (Table 7); format: cell-based; conditions: S. haemolyticus (CoNS) MMX 529 ATCC 29970
S. hominis (CoNS) = test: Broth microdilution MIC, S. hominis (CoNS) (Table 7); format: cell-based; conditions: S. hominis (CoNS) MMX 667 ATCC 27844
C. perfringens = format: cell-based; conditions: C. perfringens MMX 8351 ATCC 13124
P. micros = test: Broth microdilution MIC, P. micros (Table 7); format: cell-based; conditions: P. micros MMX 3546
P. anaerobius = test: Broth microdilution MIC, P. anaerobius (Table 7); format: cell-based; conditions: P. anaerobius MMX 1208 ATCC 27337
P. acnes = test: Broth microdilution MIC, P. acnes (Table 7); format: cell-based
E. lenta = test: Broth microdilution MIC, E. lenta (Table 7); format: cell-based; conditions: E. lenta MMX 1287 ATCC 43055

Structure (SMILES): CCCCCCCCCCNC1(C)CC(OC2C(Oc3c4cc5cc3Oc3ccc(cc3Cl)C(O)C3NC(=O)C(NC(=O)C5NC(=O)C(CC(N)=O)NC(=O)C(NC(=O)C(CC(C)C)NC)C(O)c5ccc(c(Cl)c5)O4)c4ccc(O)c(c4)-c4c(O)cc(O)cc4C(C(=O)O)NC3=O)OC(CO)C(O)C2O)OC(C)C1O (stereo not shown) [Compound 5, N-decyl vancomycin]
- RV40 activity as compared to Comparator (Staphylococcus aureus; MRSA strains (Table 5), […]): 9 ×
- MIC (Staphylococcus aureus; S. aureus MMX 100 ATCC 29213, MSSA (quality control)): 0.06 µg/mL (≈ 0.0377 µM)
- MIC (Staphylococcus aureus; S. aureus MMX 1723, Mu50, VISA): 0.5 µg/mL (≈ 0.315 µM)
- MIC (Staphylococcus aureus; S. aureus MMX 2010, MRSA): 0.06 µg/mL (≈ 0.0377 µM)
- MIC (Staphylococcus aureus; S. aureus MMX 2011 ATCC BAA-1756, MRSA): 0.12 µg/mL (≈ 0.0755 µM)
- MIC (Staphylococcus aureus; S. aureus MMX 2124, VISA, DaptoNS): 0.25 µg/mL (≈ 0.157 µM)
- MIC (Staphylococcus aureus; S. aureus MMX 2490, MSSA): 0.06 µg/mL (≈ 0.0377 µM)
- MIC (Staphylococcus aureus; S. aureus MMX 3982, MRSA): 0.06 µg/mL (≈ 0.0377 µM)
- MIC (Staphylococcus aureus; S. aureus MMX 4658, VISA): 0.5 µg/mL (≈ 0.315 µM)
- MIC (Staphylococcus aureus; S. aureus MMX 4660, VISA): 0.12 µg/mL (≈ 0.0755 µM)
- MIC (Staphylococcus aureus; S. aureus MMX 4665, hVISA): 0.5 µg/mL (≈ 0.315 µM)
- MIC (Staphylococcus aureus; S. aureus MMX 4675 ATCC BAA-1556, MRSA): 0.06 µg/mL (≈ 0.0377 µM)
- MIC (Staphylococcus aureus; S. aureus MMX 5717 ATCC 33591, MRSA): 0.06 µg/mL (≈ 0.0377 µM)
- MIC (Staphylococcus aureus; S. aureus MMX 5985, MRSA): 0.06 µg/mL (≈ 0.0377 µM)
- MIC (Staphylococcus aureus; S. aureus MMX 5989, Mu3, hVISA): 0.06 µg/mL (≈ 0.0377 µM)
- MIC (Staphylococcus aureus; S. aureus MMX 5999, MRSA): 0.06 µg/mL (≈ 0.0377 µM)
- MIC (Staphylococcus aureus; S. aureus MMX 7899, MRSA): 0.06 µg/mL (≈ 0.0377 µM)
- MIC (Staphylococcus aureus; S. aureus MMX 7900, MRSA): 0.12 µg/mL (≈ 0.0755 µM)
- MIC (Staphylococcus aureus; S. aureus MMX 7901, MRSA): 0.06 µg/mL (≈ 0.0377 µM)
- MIC (Staphylococcus aureus; S. aureus MMX 7902, MRSA): 0.25 µg/mL (≈ 0.157 µM)
- MIC (Staphylococcus aureus; S. aureus MMX 7903, MRSA): 0.06 µg/mL (≈ 0.0377 µM)
- MIC (Staphylococcus aureus; S. aureus MMX 7907, MSSA): 0.06 µg/mL (≈ 0.0377 µM)
- MIC (Staphylococcus aureus; S. aureus MMX 7908, MSSA): 0.12 µg/mL (≈ 0.0755 µM)
- MIC (Enterococci): 0.06 µg/mL (≈ 0.0377 µM)
- MIC (Enterococci; E. faecalis MMX 1086, VanA VRE): 0.06 µg/mL (≈ 0.0377 µM)
- MIC (Enterococci; E. faecium MMX 173, VanB VRE): 0.12 µg/mL (≈ 0.0755 µM)
- MIC (Enterococci; E. faecium MMX 851, VanA VRE): 2 µg/mL (≈ 1.26 µM)
- MIC (Streptococci; S. agalactiae MMX 427 ATCC 13813): 0.03 µg/mL (≈ 0.0189 µM)
- MIC (Streptococci; S. agalactiae MMX 4088): 0.015 µg/mL (≈ 0.00944 µM)
- MIC (Streptococci; S. agalactiae MMX 4115, erm^R): 0.015 µg/mL (≈ 0.00944 µM)
- MIC (Streptococci; S. anginosus (AGS) MMX 1201 ATCC 33397): 0.03 µg/mL (≈ 0.0189 µM)
- MIC (Streptococci; S. constellatus (AGS) MMX 5677): 0.03 µg/mL (≈ 0.0189 µM)
- MIC (Streptococci; S. dysgalactiae MMX 5121): 0.015 µg/mL (≈ 0.00944 µM)
- MIC (Streptococci; S. dysgalactiae MMX 5123): 0.03 µg/mL (≈ 0.0189 µM)
- MIC (Streptococci; S. dysgalactiae MMX 5124): 0.015 µg/mL (≈ 0.00944 µM)
- MIC (Streptococci; S. mitis (MGS) MMX 1205 ATCC 49456): 0.03 µg/mL (≈ 0.0189 µM)
- MIC (Streptococci; S. mitis (MGS) MMX 5798): 0.015 µg/mL (≈ 0.00944 µM)
- MIC (Streptococci; S. oralis (MGS) MMX 5821): 0.03 µg/mL (≈ 0.0189 µM)
- MIC (Streptococci; S. pneumoniae MMX 1195 ATCC 49619, PISP): 0.015 µg/mL (≈ 0.00944 µM)
- MIC (Streptococci; S. pyogenes MMX 946, ermR): 0.015 µg/mL (≈ 0.00944 µM)
- MIC (Clostridium difficile; C. difficile MMX 4381 ATCC 700057, toxinAB-negative): 0.06 µg/mL (≈ 0.0377 µM)
- MIC (Clostridium difficile; C. difficile MMX 4994 ATCC BAA-1805, ribotype 027): 0.06 µg/mL (≈ 0.0377 µM)
- MIC (Clostridium difficile; C. difficile MMX 5668 ATCC BAA-1870, NAP1/027): 0.5 µg/mL (≈ 0.315 µM)
- drug precipitation [1]: Some precipitation
- MIC (S. epidermidis (CoNS); S. epidermidis (CoNS) MMX 762, MRSE): 0.12 µg/mL (≈ 0.0755 µM)
- MIC (S. epidermidis (CoNS); S. epidermidis (CoNS) MMX 5145, MRSE): 0.06 µg/mL (≈ 0.0377 µM)
- MIC (S. lugdenensis (CoNS)): 0.03 µg/mL (≈ 0.0189 µM)
- MIC (S. haemolyticus (CoNS)): 0.06 µg/mL (≈ 0.0377 µM)
- MIC (S. hominis (CoNS)): 0.06 µg/mL (≈ 0.0377 µM)
- MIC (C. perfringens): 0.06 µg/mL (≈ 0.0377 µM)
- MIC (P. micros): 0.12 µg/mL (≈ 0.0755 µM)
- MIC (P. anaerobius): 0.03 µg/mL (≈ 0.0189 µM)
- MIC (P. acnes; P. acnes MMX 7942 ATCC 6919): 0.06 µg/mL (≈ 0.0377 µM)
- MIC (P. acnes; P. acnes MMX 7946 ATCC 11827): 0.06 µg/mL (≈ 0.0377 µM)
- MIC (E. lenta): 0.12 µg/mL (≈ 0.0755 µM)
